Assay results as given in ChEMBL document CHEMBL1649134, “Occurrence of efflux mechanism and cephalosporinase variant in a population of Enterobacter aerogenes and Klebsiella pneumoniae isolates producing extended-spectrum beta-lactamases” (2009).
Values after ≈ are worked out from the molar mass of the structure shown.

What was measured:
[1] = test system: Klebsiella aerogenes; assay: Inhibition of multidrug resistance efflux pump in Enterobacter aerogenes isolate 13 assessed as increase in intracellular [14C]chloramphenicol accumulation relative to untreated control; format: cell-based
[2] = test system: Klebsiella pneumoniae; assay: Inhibition of multidrug resistance efflux pump in Klebsiella pneumoniae isolate 13 assessed as increase in intracellular [14C]chloramphenicol accumulation relative to untreated control
[3] = test system: Klebsiella aerogenes; assay: Inhibition of multidrug resistance efflux pump in Enterobacter aerogenes isolate 17 assessed as increase in intracellular [14C]chloramphenicol accumulation relative to untreated control; format: cell-based
[4] = test system: Klebsiella aerogenes; assay: Inhibition of multidrug resistance efflux pump in Enterobacter aerogenes isolate 6 assessed as increase in intracellular [14C]chloramphenicol accumulation relative to untreated control; format: cell-based
[5] = test system: Klebsiella pneumoniae; assay: Inhibition of multidrug resistance efflux pump in Klebsiella pneumoniae isolate 14 assessed as increase in intracellular [14C]chloramphenicol accumulation relative to untreated control
[6] = test system: Klebsiella aerogenes; assay: Antimicrobial activity against multidrug resistant Enterobacter aerogenes ATCC 15038 harboring pDrive plasmid by broth dilution method; format: functional
[7] = test system: Klebsiella aerogenes; assay: Antimicrobial activity against multidrug resistant Enterobacter aerogenes isolate 23 by broth dilution method; format: functional
[8] = test system: Klebsiella aerogenes; assay: Antimicrobial activity against multidrug resistant Enterobacter aerogenes isolate 8 by broth dilution method; format: functional
[9] = test system: Klebsiella aerogenes; assay: Antimicrobial activity against multidrug resistant Enterobacter aerogenes isolate 27 by broth dilution method; format: functional
[10] = test system: Klebsiella aerogenes; assay: Antimicrobial activity against multidrug resistant Enterobacter aerogenes isolate 2 by broth dilution method; format: functional
[11] = test system: Klebsiella pneumoniae; assay: Antimicrobial activity against multidrug resistant Klebsiella pneumoniae isolate 2 by broth dilution method; format: functional
[12] = test system: Klebsiella aerogenes; assay: Antimicrobial activity against multidrug resistant Enterobacter aerogenes isolate 6 by broth dilution method; format: functional
[13] = test system: Klebsiella pneumoniae; assay: Antimicrobial activity against multidrug resistant Klebsiella pneumoniae isolate 4 by broth dilution method; format: functional
[14] = test system: Klebsiella pneumoniae; assay: Antimicrobial activity against multidrug resistant Klebsiella pneumoniae isolate 10 by broth dilution method; format: functional
[15] = test system: Klebsiella aerogenes; assay: Antimicrobial activity against multidrug resistant Enterobacter aerogenes isolate 7 by broth dilution method; format: functional
[16] = test system: Klebsiella aerogenes; assay: Antimicrobial activity against multidrug resistant Enterobacter aerogenes isolate 4 by broth dilution method; format: functional
[17] = test system: Klebsiella aerogenes; assay: Antimicrobial activity against multidrug resistant Enterobacter aerogenes isolate 24 by broth dilution method; format: functional
[18] = test system: Escherichia coli; assay: microbe, parasite or virus in culture; conditions: DH5[alpha]
Description: Antimicrobial activity against multidrug resistant Escherichia coli DH5[alpha] harboring pACM204 plasmid by broth dilution method

[19] = test system: Klebsiella aerogenes; assay: Antimicrobial activity against multidrug resistant Enterobacter aerogenes isolate 26 by broth dilution method; format: functional
[20] = test system: Escherichia coli; assay: microbe, parasite or virus in culture; conditions: ATCC 35218
Description: Antimicrobial activity against multidrug resistant Escherichia coli ATCC 35218 harboring pDrive plasmid expressing ampC gene by broth dilution method

[21] = test system: Klebsiella pneumoniae; assay: Antimicrobial activity against multidrug resistant Klebsiella pneumoniae isolate 15 by broth dilution method; format: functional
[22] = test system: Escherichia coli; assay: microbe, parasite or virus in culture; conditions: DH5[alpha]; remark: listed apart in the source
Description: Antimicrobial activity against multidrug resistant Escherichia coli DH5[alpha] harboring pDrive plasmid by broth dilution method

[23] = test system: Klebsiella aerogenes; assay: Antimicrobial activity against multidrug resistant Enterobacter aerogenes isolate 11 by broth dilution method; format: functional
[24] = test system: Klebsiella pneumoniae; assay: Antimicrobial activity against multidrug resistant Klebsiella pneumoniae isolate 12 by broth dilution method; format: functional
[25] = test system: Klebsiella aerogenes; assay: Antimicrobial activity against multidrug resistant Enterobacter aerogenes isolate 13 by broth dilution method; format: functional
[26] = test system: Klebsiella aerogenes; assay: Antimicrobial activity against multidrug resistant Enterobacter aerogenes isolate 15 by broth dilution method; format: functional
[27] = test system: Klebsiella pneumoniae; assay: Antimicrobial activity against multidrug resistant Klebsiella pneumoniae isolate 13 by broth dilution method; format: functional
[28] = test system: Klebsiella aerogenes; assay: Antimicrobial activity against multidrug resistant Enterobacter aerogenes isolate 17 by broth dilution method; format: functional
[29] = test system: Klebsiella pneumoniae; assay: Antimicrobial activity against multidrug resistant Klebsiella pneumoniae isolate 9 by broth dilution method; format: functional
[30] = test system: Klebsiella aerogenes; assay: Antimicrobial activity against multidrug resistant Enterobacter aerogenes isolate 19 by broth dilution method; format: functional
[31] = test system: Klebsiella aerogenes; assay: Antimicrobial activity against multidrug resistant Enterobacter aerogenes isolate 5 by broth dilution method; format: functional
[32] = test system: Klebsiella pneumoniae; assay: Antimicrobial activity against multidrug resistant Klebsiella pneumoniae isolate 7 by broth dilution method; format: functional
[33] = test system: Klebsiella aerogenes; assay: Antimicrobial activity against multidrug resistant Enterobacter aerogenes ATCC 15038 by broth dilution method; format: functional
[34] = test system: Klebsiella pneumoniae; assay: Antimicrobial activity against multidrug resistant Klebsiella pneumoniae isolate 1 by broth dilution method; format: functional
[35] = test system: Klebsiella aerogenes; assay: Antimicrobial activity against multidrug resistant Enterobacter aerogenes ATCC 15038 harboring pDrive plasmid expressing ampC gene by broth dilution method; format: functional
[36] = test system: Klebsiella aerogenes; assay: Antimicrobial activity against multidrug resistant Enterobacter aerogenes isolate 25 by broth dilution method; format: functional
[37] = test system: Klebsiella pneumoniae; assay: Antimicrobial activity against multidrug resistant Klebsiella pneumoniae isolate 11 by broth dilution method; format: functional
[38] = test system: Klebsiella pneumoniae; assay: Antimicrobial activity against multidrug resistant Klebsiella pneumoniae isolate 3 by broth dilution method; format: functional
[39] = test system: Klebsiella pneumoniae; assay: Antimicrobial activity against multidrug resistant Klebsiella pneumoniae ATCC 11296 by broth dilution method; format: functional
[40] = test system: Klebsiella aerogenes; assay: Antimicrobial activity against multidrug resistant Enterobacter aerogenes isolate 21 by broth dilution method; format: functional
[41] = test system: Escherichia coli; assay: microbe, parasite or virus in culture; conditions: ATCC 35218; remark: listed apart in the source
Description: Antimicrobial activity against multidrug resistant Escherichia coli ATCC 35218 harboring pDrive plasmid by broth dilution method

[42] = test system: Klebsiella aerogenes; assay: Antimicrobial activity against multidrug resistant Enterobacter aerogenes isolate 9 by broth dilution method; format: functional
[43] = test system: Klebsiella aerogenes; assay: Antimicrobial activity against multidrug resistant Enterobacter aerogenes isolate 12 by broth dilution method; format: functional
[44] = test system: Escherichia coli; assay: microbe, parasite or virus in culture; conditions: DH5[alpha]; remark: listed apart in the source
Description: Antimicrobial activity against multidrug resistant Escherichia coli DH5[alpha] harboring pDrive plasmid expressing ampC gene by broth dilution method

[45] = test system: Klebsiella aerogenes; assay: Antimicrobial activity against multidrug resistant Enterobacter aerogenes isolate 3 by broth dilution method; format: functional
[46] = test system: Escherichia coli; assay: Antimicrobial activity against multidrug resistant Escherichia coli ATCC 35218 by broth dilution method; format: functional
[47] = test system: Klebsiella aerogenes; assay: Antimicrobial activity against multidrug resistant Enterobacter aerogenes isolate 1 by broth dilution method; format: functional
[48] = test system: Klebsiella pneumoniae; assay: Antimicrobial activity against multidrug resistant Klebsiella pneumoniae isolate 8 by broth dilution method; format: functional
[49] = test system: Klebsiella aerogenes; assay: Antimicrobial activity against multidrug resistant Enterobacter aerogenes isolate 20 by broth dilution method; format: functional
[50] = test system: Klebsiella pneumoniae; assay: Antimicrobial activity against multidrug resistant Klebsiella pneumoniae isolate 16 by broth dilution method; format: functional
[51] = test system: Klebsiella pneumoniae; assay: Antimicrobial activity against multidrug resistant Klebsiella pneumoniae isolate 6 by broth dilution method; format: functional
[52] = test system: Klebsiella aerogenes; assay: Antimicrobial activity against multidrug resistant Enterobacter aerogenes isolate 18 by broth dilution method; format: functional
[53] = test system: Klebsiella pneumoniae; assay: Antimicrobial activity against multidrug resistant Klebsiella pneumoniae isolate 5 by broth dilution method; format: functional
[54] = test system: Klebsiella aerogenes; assay: Antimicrobial activity against multidrug resistant Enterobacter aerogenes isolate 14 by broth dilution method; format: functional
[55] = test system: Klebsiella aerogenes; assay: Antimicrobial activity against multidrug resistant Enterobacter aerogenes isolate 16 by broth dilution method; format: functional
[56] = test system: Klebsiella aerogenes; assay: Antimicrobial activity against multidrug resistant Enterobacter aerogenes isolate 10 by broth dilution method; format: functional
[57] = test system: Klebsiella aerogenes; assay: Antimicrobial activity against multidrug resistant Enterobacter aerogenes ATCC 15038 harboring pACM204 plasmid by broth dilution method; format: functional
[58] = test system: Klebsiella aerogenes; assay: Antimicrobial activity against multidrug resistant Enterobacter aerogenes isolate 22 by broth dilution method; format: functional
[59] = test system: Escherichia coli; assay: microbe, parasite or virus in culture; conditions: DH5[alpha]; remark: listed apart in the source
Description: Antimicrobial activity against multidrug resistant Escherichia coli DH5[alpha] by broth dilution method

Structure (SMILES): N#CC(C#N)=NNc1cccc(Cl)c1 [CARBONYL CYANIDE M-CHLOROPHENYLHYDRAZONE]
- fold change (FC) [1]: 2
- fold change (FC) [2]: 2
- fold change (FC) [3]: 2
- fold change (FC) [4]: 2
- fold change (FC) [5]: 2

Structure (SMILES): CO/N=C(\C(=O)N[C@@H]1C(=O)N2C(C(=O)[O-])=C(C[N+]3(C)CCCC3)CS[C@H]12)c1csc(N)n1
- MIC [6]: 0.25 µg/mL (≈ 0.52 µM)
- MIC [7]: 64 µg/mL (≈ 133 µM)
- MIC [8]: 64 µg/mL (≈ 133 µM)
- MIC [9]: 128 µg/mL (≈ 266 µM)
- MIC [10]: 32 µg/mL (≈ 66.6 µM)
- MIC [11]: 64 µg/mL (≈ 133 µM)
- MIC [12]: 4 µg/mL (≈ 8.32 µM)
- MIC [13]: 64 µg/mL (≈ 133 µM)
- MIC [14]: 64 µg/mL (≈ 133 µM)
- MIC [15]: 64 µg/mL (≈ 133 µM)
- MIC [16]: 32 µg/mL (≈ 66.6 µM)
- MIC [17]: 128 µg/mL (≈ 266 µM)
- MIC [18]: 0.25 µg/mL (≈ 0.52 µM)
- MIC [19]: 2 µg/mL (≈ 4.16 µM)
- MIC [20]: 32 µg/mL (≈ 66.6 µM)
- MIC [21]: 32 µg/mL (≈ 66.6 µM)
- MIC [22]: 0.5 µg/mL (≈ 1.04 µM)
- MIC [23]: 64 µg/mL (≈ 133 µM)
- MIC [24]: 16 µg/mL (≈ 33.3 µM)
- MIC [25]: 64 µg/mL (≈ 133 µM)
- MIC [26]: 16 µg/mL (≈ 33.3 µM)
- MIC [27]: 2 µg/mL (≈ 4.16 µM)
- MIC [28]: 64 µg/mL (≈ 133 µM)
- MIC [29]: 64 µg/mL (≈ 133 µM)
- MIC [30]: 64 µg/mL (≈ 133 µM)
- MIC [31]: 64 µg/mL (≈ 133 µM)
- MIC [32]: 64 µg/mL (≈ 133 µM)
- MIC [33]: 0.03 µg/mL (≈ 0.0624 µM)
- MIC [34]: 64 µg/mL (≈ 133 µM)
- MIC [35]: 32 µg/mL (≈ 66.6 µM)
- MIC [36]: 64 µg/mL (≈ 133 µM)
- MIC [37]: 64 µg/mL (≈ 133 µM)
- MIC [38]: 64 µg/mL (≈ 133 µM)
- MIC [39]: 0.125 µg/mL (≈ 0.26 µM)
- MIC [40]: 128 µg/mL (≈ 266 µM)
- MIC [41]: 0.5 µg/mL (≈ 1.04 µM)
- MIC [42]: 32 µg/mL (≈ 66.6 µM)
- MIC [43]: 128 µg/mL (≈ 266 µM)
- MIC [44]: 32 µg/mL (≈ 66.6 µM)
- MIC [45]: 16 µg/mL (≈ 33.3 µM)
- MIC [46]: 0.03 µg/mL (≈ 0.0624 µM)
- MIC [47]: 32 µg/mL (≈ 66.6 µM)
- MIC [48]: 64 µg/mL (≈ 133 µM)
- MIC [49]: 64 µg/mL (≈ 133 µM)
- MIC [50]: 64 µg/mL (≈ 133 µM)
- MIC [51]: 16 µg/mL (≈ 33.3 µM)
- MIC [52]: 32 µg/mL (≈ 66.6 µM)
- MIC [53]: 64 µg/mL (≈ 133 µM)
- MIC [54]: 64 µg/mL (≈ 133 µM)
- MIC [55]: 64 µg/mL (≈ 133 µM)
- MIC [56]: 16 µg/mL (≈ 33.3 µM)
- MIC [57]: 0.25 µg/mL (≈ 0.52 µM)
- MIC [58]: 64 µg/mL (≈ 133 µM)
- MIC [59]: 0.125 µg/mL (≈ 0.26 µM)
